The values that follow come from patent US9447028B2, “Therapeutic aryl-amido-aryl compounds and their use” (King's College London, priority 2009, dated 2016).

Holding throughout (assay type): cell-based
The target of one assay is T1, RARα (Homo sapiens, UniProt P10276).
T1 construct: gal4 (fusion partner); expressed in transfected cells; host or cells: COS-7
T1 sequence (P10276 183-417 limits assumed): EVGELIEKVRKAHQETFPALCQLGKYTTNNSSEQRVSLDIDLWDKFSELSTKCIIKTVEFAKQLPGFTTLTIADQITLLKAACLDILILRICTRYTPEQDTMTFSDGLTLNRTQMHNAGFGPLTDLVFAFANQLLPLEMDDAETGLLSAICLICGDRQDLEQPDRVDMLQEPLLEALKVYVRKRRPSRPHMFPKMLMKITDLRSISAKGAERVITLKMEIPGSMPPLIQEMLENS
Kind of assay: Transactivation assay for RAR alpha (gal4-RAR fusion, luciferase reporter, COS-7 cells). The conditions noted are these: for RARα/RARβ ratio (*): fold-selectivity for RARα over RARβ; for RARα activity ratio: ratio of test compound EC50 to that of atRA on the same plate. The procedure, abridged: (§1)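 COS-7 cells co-transfected with gal4–RAR ligand-binding-domain fusion and pFR-luc reporter, then treated with compound in phenol-red-free DMEM (1% DMSO) for about one day. Luciferase read after lysis with BrightGlo; EC50 values from replicate experiments given as a ratio of means.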
(In general: In a reporter assay the amount or activity of a reporter protein is the signal.)

The target of a further assay is T2, RARβ (Homo sapiens, UniProt P10826).
T2 construct: gal4 (fusion partner); expressed in transfected cells; host or cells: COS-7
T2 sequence (P10826 183-417 limits assumed): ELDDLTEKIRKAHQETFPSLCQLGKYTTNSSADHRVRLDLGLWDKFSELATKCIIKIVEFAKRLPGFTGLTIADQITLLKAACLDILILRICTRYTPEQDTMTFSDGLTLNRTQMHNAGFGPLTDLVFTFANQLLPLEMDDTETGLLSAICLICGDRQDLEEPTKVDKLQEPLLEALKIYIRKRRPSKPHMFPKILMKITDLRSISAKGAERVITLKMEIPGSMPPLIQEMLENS
As to the kind of experiment: Transactivation assay for RAR beta (gal4-RAR fusion, luciferase reporter, COS-7 cells). The conditions noted are these: ratio of test compound EC50 to that of atRA; inactive = no agonist action at the highest concentration tested. In short, it runs like this: as §1

The target of a further assay is T3, RARγ (Homo sapiens, UniProt P13631).
T3 construct: gal4 (fusion partner); expressed in transfected cells; host or cells: COS-7
T3 sequence (P13631 185-419 limits assumed): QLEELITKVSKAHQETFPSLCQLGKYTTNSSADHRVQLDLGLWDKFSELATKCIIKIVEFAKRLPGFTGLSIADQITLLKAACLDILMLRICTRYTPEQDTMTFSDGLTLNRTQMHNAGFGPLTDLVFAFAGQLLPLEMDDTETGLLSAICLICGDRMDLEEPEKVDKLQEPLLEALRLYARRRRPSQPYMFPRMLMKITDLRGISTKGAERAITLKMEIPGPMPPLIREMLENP
As to the kind of experiment: Transactivation assay for RAR gamma (gal4-RAR fusion, luciferase reporter, COS-7 cells). The conditions noted are these: ratio of test compound EC50 to that of atRA; inactive = no agonist action at the highest concentration tested. The procedure, abridged: as §1

As for `Cc1cc(NC(=O)c2cc(Cl)c(OC(C)(C)C)c(OC(C)(C)C)c2)ccc1C(=O)O` [AAA-049, 4-(3,4-Di-tert-butoxy-5-chlorobenzamido)-2-methylbenzoic acid], at RARα, the “RARα/RARβ ratio (*)” value is listed as 13200 and the RARα activity ratio worked out at 0.64. Moreover, the RARβ activity ratio on RARβ was 8460. Further, at RARγ, the RARγ activity ratio amounted to 82.

With `COc1c(Cl)cc(C(=O)Nc2ccc(C(=O)O)c(C)c2)cc1C(F)(F)F` [AAA-041, 4-(3-Chloro-4-methoxy-5-(trifluoromethyl)benzamido)-2-methylbenzoic acid], at RARα, the “RARα/RARβ ratio (*)” value is on record as 44 and the RARα activity ratio is 5.4. The RARβ activity ratio at RARβ was 238. For the same compound, the RARγ activity ratio on RARγ was 31340.

`COc1c(OC(C)C)cc(C(=O)Nc2ccc(C(=O)O)c(C)c2)cc1OC(C)C` [AAA-063, 4-(3,5-Diisopropoxy-4-methoxybenzamido)-2-methylbenzoic acid]: on RARα, the “RARα/RARβ ratio (*)” value is recorded as 22 and the RARα activity ratio turned out to be 76. In addition, the RARβ activity ratio at RARβ is 1686. On RARγ, the RARγ activity ratio amounted to 6429.

In the case of `Cc1cc(NC(=O)c2cc(Cl)c(OC3CCCC3)c(Cl)c2)ccc1C(=O)O` [AAA-054, 4-(3,5-Dichloro-4-(cyclopentyloxy)benzamido)-2-methylbenzoic acid], on RARα, the “RARα/RARβ ratio (*)” value is 36 and the RARα activity ratio was determined as 0.59. Besides, the RARβ activity ratio on RARβ is reported as 21. Moreover, on RARγ, the RARγ activity ratio came out at 51.

Regarding `CC(C)Oc1cc(C(=O)Nc2ccc(C(=O)O)cc2)cc(C(F)(F)F)c1OC(C)C` [AAA-120, 4-(3,4-Diisopropoxy-5-(trifluoromethyl)benzamido)benzoic acid], on RARα, the “RARα/RARβ ratio (*)” value is 157 and the RARα activity ratio is reported as 0.89. For the same compound, at RARβ, the RARβ activity ratio stood at 142. For the same compound, at RARγ, the RARγ activity ratio is listed as 2162.

Consider `CC(C)Oc1c(Cl)cc(C(=O)Nc2ccc(C(=O)O)c(F)c2)cc1C(F)(F)F` [AAA-069, 4-(3-Chloro-4-isopropoxy-5-(trifluoromethyl)benzamido)-2-fluorobenzoic acid], for which, at RARα, the “RARα/RARβ ratio (*)” value worked out at 421 and the RARα activity ratio is given as 1.2. The RARβ activity ratio on RARβ was 505. Also, the RARγ activity ratio at RARγ is listed as 3380.

On to `O=C(Nc1ccc(C(=O)O)c(O)c1)c1cc(Cl)c(OC2CCC2)c(OC2CCC2)c1` [AAA-094, 4-(3-Chloro-4,5-di(cyclobutyloxy)benzamido)-2-hydroxybenzoic acid], for which, on RARα, the “RARα/RARβ ratio (*)” value is reported as 2852 and the RARα activity ratio was determined as 0.23. Besides, the RARβ activity ratio at RARβ is recorded as 656. For the same compound, the RARγ activity ratio at RARγ worked out at 20000.

For the compound `CCOc1c(Cl)cc(C(=O)Nc2ccc(C(=O)O)c(F)c2)cc1C(F)(F)F` [AAA-068, 4-(3-Chloro-4-ethoxy-5-(trifluoromethyl)benzamido)-2-fluorobenzoic acid], at RARα, the “RARα/RARβ ratio (*)” value stood at 140 and the RARα activity ratio is on record as 7. Also, the RARβ activity ratio at RARβ is given as 976. In addition, the RARγ activity ratio on RARγ turned out to be 60833.

As to `COc1cc(C(=O)Nc2ccc(C(=O)O)cc2)cc(Cl)c1OC(C)C` [AAA-083, 4-(3-Chloro-4-isopropoxy-5-methoxybenzamido)benzoic acid], at RARα, the “RARα/RARβ ratio (*)” value is 10 and the RARα activity ratio worked out at 9. On RARβ, the RARβ activity ratio came out at 90. Also, on RARγ, the RARγ activity ratio was 4390.

For `CC(C)Oc1cc(C(=O)Nc2ccc(C(=O)O)cc2)cc(OC(C)C)c1F` [AAA-119, 4-(4-Fluoro-3,5-diisopropoxybenzamido)benzoic acid], at RARα, the “RARα/RARβ ratio (*)” value turned out to be 192 and the RARα activity ratio is reported as 26. Besides, the RARβ activity ratio on RARβ stood at 5000. Moreover, the RARγ activity ratio on RARγ was more than 42000.

With `CCOc1c(Cl)cc(C(=O)Nc2ccc(C(=O)O)c(C)c2)cc1OC(C)C` [AAA-080, 4-(3-Chloro-4-ethoxy-5-isopropoxybenzamido)-2-methylbenzoic acid], on RARα, the RARα activity ratio was 1.6. The RARβ activity ratio at RARβ was determined as 318. Also, on RARγ, the RARγ activity ratio came out at 17460.

Take `COc1c(Cl)cc(C(=O)Nc2ccc(C(=O)O)c(C)c2)cc1OC1CCC1` [AAA-099, 4-(3-Chloro-5-cyclobutoxy-4-methoxybenzamido)-2-methylbenzoic acid]: on RARα, the “RARα/RARβ ratio (*)” value is on record as 59 and the RARα activity ratio came to 11. In addition, the RARβ activity ratio on RARβ is listed as 655. For the same compound, the RARγ activity ratio at RARγ is given as 89.

Consider `CC(C)(C)Oc1c(Cl)cc(C(=O)Nc2ccc(C(=O)O)cc2)cc1C(F)(F)F` [AAA-037, 4-(4-(tert-Butoxy)-3-chloro-5-(trifluoromethyl)benzamido)benzoic acid], for which, on RARα, the “RARα/RARβ ratio (*)” value was determined as 1300 and the RARα activity ratio is on record as 0.25. The RARβ activity ratio on RARβ was found to be 324. Further, on RARγ, the RARγ activity ratio is more than 2600.

On to `CCOc1c(Cl)cc(C(=O)Nc2ccc(C(=O)O)c(F)c2)cc1OC(C)C` [AAA-079, 4-(3-Chloro-4-ethoxy-5-isopropoxybenzamido)-2-fluorobenzoic acid], for which, at RARα, the “RARα/RARβ ratio (*)” value worked out at 487 and the RARα activity ratio is 1.1. Moreover, the RARβ activity ratio at RARβ is 536. For the same compound, the RARγ activity ratio on RARγ came out at 6786.

As to `CCOc1c(Cl)cc(NC(=O)c2ccc(C(=O)O)cc2)cc1Cl` [AAA-013, 4-(3,5-Dichloro-4-ethoxyphenylcarbamoyl)benzoic acid], at RARα, the “RARα/RARβ ratio (*)” value is recorded as 11.8 and the RARα activity ratio is on record as 30. Further, the RARβ activity ratio at RARβ is given as 355. Also, on RARγ, the RARγ activity ratio result was “inactive”.

Consider `O=C(O)c1ccc(NC(=O)c2cc(Cl)c(OC3CCC3)c(C(F)(F)F)c2)cc1` [AAA-036, 4-(3-Chloro-4-cyclobutoxy-5-(trifluoromethyl)benzamido)benzoic acid], for which, on RARα, the “RARα/RARβ ratio (*)” value is given as 31 and the RARα activity ratio was found to be 7.0. Also, the RARβ activity ratio at RARβ stood at 215. Moreover, the RARγ activity ratio at RARγ stood at 2438.

Turning to `COCCOc1cc(C(=O)Nc2ccc(C(=O)O)c(F)c2)cc(Cl)c1OC` [AAA-104, 4-(3-Chloro-4-methoxy-5-(2-methoxyethoxy)benzamido)-2-fluorobenzoic acid], at RARα, the “RARα/RARβ ratio (*)” value is listed as 535 and the RARα activity ratio worked out at 19. Further, on RARβ, the RARβ activity ratio was determined as 10164. Moreover, the RARγ activity ratio at RARγ is recorded as 5000.

As for `CCOc1c(Cl)cc(C(=O)Nc2ccc(C(=O)O)cc2)cc1C(F)(F)F` [AAA-025, 4-(3-Chloro-4-ethoxy-5-(trifluoromethyl)benzamido)benzoic acid], at RARα (compared with XXX-01), the “increase in RARα activity” value is recorded as 65 fold and the “increase in RARα versus RARβ selectivity” value was 3 fold. The RARβ activity ratio at RARβ was 131. Moreover, at RARγ, the RARγ activity ratio entry is “inactive”.

For the compound `CC(C)Oc1c(Cl)cc(C(=O)Nc2ccc(C(=O)O)cc2)cc1Cl` [AAA-004, 4-(3,5-Dichloro-4-isopropoxybenzamido)benzoic acid], at RARα (compared with XXX-03), the “Improvement (RARα activity ratio)” value was ~13-fold and the “Improvement (RARα/RARβ ratio)” value was ~29-fold. Further, the RARβ activity ratio at RARβ came to 1420. Also, the RARγ activity ratio at RARγ was determined as 820.

Take `CC(C)Oc1cc(C(=O)Nc2ccc(C(=O)O)cc2)cc(OC(C)C)c1Cl` [AAA-112, 4-(4-Chloro-3,5-diisopropoxybenzamido)benzoic acid]: at RARα, the “RARα/RARβ ratio (*)” value is 1212 and the RARα activity ratio is listed as 2. For the same compound, the RARβ activity ratio at RARβ amounted to 2464. Moreover, on RARγ, the RARγ activity ratio came out at 1268.

With `O=C(O)c1ccc(NC(=O)c2cc(Cl)c(OC3CCCC3)c(OC3CCCC3)c2)cc1` [AAA-044, 4-(3-Chloro-4,5-bis(cyclopentyloxy)benzamido)benzoic acid], on RARα, the “RARα/RARβ ratio (*)” value came out at 32 and the RARα activity ratio is given as 1.7. Besides, the RARβ activity ratio at RARβ is given as 55. The RARγ activity ratio at RARγ is 571.

In the case of `CCOc1c(Cl)cc(NC(=O)c2ccc(C(=O)O)cn2)cc1Cl` [AAA-020, 6-(3,5-Dichloro-4-ethoxyphenylcarbamoyl)nicotinic acid], at RARα, the “RARα/RARβ ratio (*)” value was determined as 2.0 and the RARα activity ratio amounted to 108. In addition, at RARβ, the RARβ activity ratio was 214. Besides, the RARγ activity ratio result at RARγ was “inactive”.

`O=C(O)c1ccc(NC(=O)c2cc(Cl)c(OC3CCCCC3)c(OC3CCCCC3)c2)cc1` [AAA-047, 4-(3-Chloro-4,5-bis(cyclohexyloxy)benzamido)benzoic acid]: on RARα, the “RARα/RARβ ratio (*)” value amounted to 2 and the RARα activity ratio is 11. Besides, on RARβ, the RARβ activity ratio was 22. Also, the RARγ activity ratio at RARγ stood at 270.
